Experimental data: article PMC8933873 (European Journal of Medicinal Chemistry, 2022)

Tested on: SARS-CoV-2
Assay: not given
Settings: read-out: Anti-SARS-CoV-2 IC50; literature value; cited from earlier work

| Compound | IC50 |
| --- | --- |
| O=C(Nc1ccc([N+](=O)[O-])cc1Cl)c1cc(Cl)ccc1O [Compound 1, 5-Chloro-N-(2-chloro-4-nitrophenyl)-2-hydroxybenzamide] | 0.34 µM |

Tested on: SARS-CoV-2
Assay: Quantification of SARS-CoV-2 viral load via antibody staining
Assay type: cell-based
Settings: not given

| Compound | anti-SARS-CoV-2 activity relative to niclosamide |
| --- | --- |
| O=C(Nc1ccc([N+](=O)[O-])c(Cl)c1)c1cc(Cl)ccc1O [Compound 5, 5-Chloro-N-(3-chloro-4-nitrophenyl)-2-hydroxybenzamide] | 7 fold |

Tested on: not given
Assay: not given
Settings: GI permeability, 50 μM, 25 °C, 3 h

| Compound | PAMPA |
| --- | --- |
| 5-Chloro-N-(3-hydroxybenzyl)-2-hydroxybenzamide [Compound 13] | 15.9 10^−6 cm/s |
| 5-Chloro-N-(4-hydroxybenzyl)-2-hydroxybenzamide [Compound 14] | 33.1 10^−6 cm/s |
| O=C(Nc1ccc([N+](=O)[O-])cc1Cl)c1cc(Cl)ccc1O [Compound 1, 5-Chloro-N-(2-chloro-4-nitrophenyl)-2-hydroxybenzamide] | 8.5 10^−6 cm/s |
| O=C(Nc1ccccc1)c1cc(Cl)ccc1O [Compound 2, 5-Chlorosalicylanilide] | 16.0 10^−6 cm/s |
| O=C(Nc1cccc([N+](=O)[O-])c1)c1cc(Cl)ccc1O [Compound 4, 5-Chloro-N-(3-nitrophenyl)-2-hydroxybenzamide] | 19.5 10^−6 cm/s |
| O=C(Nc1cccc(Cl)c1)c1cc(Cl)ccc1O [Compound 6, 5-Chloro-N-(3-chlorophenyl)-2-hydroxybenzamide] | 8.6 10^−6 cm/s |
| O=C(Nc1ccc(F)c(Cl)c1)c1cc(Cl)ccc1O [Compound 7, 5-Chloro-N-(3-chloro-4-fluorophenyl)-2-hydroxybenzamide] | 11.5 10^−6 cm/s |
| O=C(Nc1cccc(F)c1)c1cc(Cl)ccc1O [Compound 9, 5-Chloro-N-(3-fluorophenyl)-2-hydroxybenzamide] | 3.7 10^−6 cm/s |
| O=C(Nc1ccc(C(F)(F)F)cc1)c1cc(Cl)ccc1O [Compound 10, 5-Chloro-N-(4-trifluoromethylphenyl)-2-hydroxybenzamide] | 6.9 10^−6 cm/s |
| O=C(Nc1cccc(C(F)(F)F)c1)c1cc(Cl)ccc1O [Compound 11, 5-Chloro-N-(3-trifluoromethylphenyl)-2-hydroxybenzamide] | 4.2 10^−6 cm/s |
| CC(C)(C)c1cccc(NC(=O)c2cc(Cl)ccc2O)c1 [Compound 12, 5-Chloro-N-(3-tert-butylphenyl)-2-hydroxybenzamide] | 18.7 10^−6 cm/s |
| O=C(Nc1ccc(N2CCCCC2)cc1)c1cc(Cl)ccc1O [Compound 15, 5-Chloro-N-(4-(piperidin-1-yl)phenyl)-2-hydroxybenzamide] | 43.3 10^−6 cm/s |
| Cc1ccc(CNC(=O)c2cc(Cl)ccc2O)cc1 [Compound 16, 5-Chloro-N-(4-methylbenzyl)-2-hydroxybenzamide] | 42.6 10^−6 cm/s |
| Cc1cccc(CNC(=O)c2cc(Cl)ccc2O)c1 [Compound 17, 5-Chloro-N-(3-methylbenzyl)-2-hydroxybenzamide] | 28.4 10^−6 cm/s |
| O=C(Nc1ccc([N+](=O)[O-])cc1Cl)c1ccccc1O [Compound 18, N-(2-chloro-4-nitrophenyl)-2-hydroxybenzamide] | 15.3 10^−6 cm/s |
| O=C(Nc1ccc([N+](=O)[O-])cc1Cl)c1ccccc1 [Compound 19, N-(2-chloro-4-nitrophenyl)benzamide] | 42.2 10^−6 cm/s |
| Cc1ccc(O)c(C(=O)Nc2ccc([N+](=O)[O-])cc2Cl)c1 [Compound 20, 5-Methyl-N-(2-chloro-4-nitrophenyl)-2-hydroxybenzamide] | 20.9 10^−6 cm/s |
| Cc1ccc(C(=O)Nc2ccc([N+](=O)[O-])cc2Cl)c(O)c1 [Compound 21, 4-Methyl-N-(2-chloro-4-nitrophenyl)-2-hydroxybenzamide] | 6.1 10^−6 cm/s |
| O=C(Nc1ccc([N+](=O)[O-])cc1Cl)c1cc(F)ccc1O [Compound 22, 5-Fluoro-N-(2-chloro-4-nitrophenyl)-2-hydroxybenzamide] | 30.7 10^−6 cm/s |
| O=C(Nc1ccc(O[C@@H]2O[C@H](CO)[C@@H](O)[C@H](O)[C@H]2O)cc1)c1cc(Cl)ccc1O [Compound 27, 5-Chloro-N-(4-phenyl-β-D-glucopyranoside)-2-hydroxybenzamide] | 1.9 10^−6 cm/s |

Tested on: SARS-CoV-2 virus strain hCoV-19/Taiwan/4/2020
Assay: not given
Assay type: cell-based
Settings: not given

| Compound | antiviral efficacy in CPE screening |
| --- | --- |
| 5-Chloro-N-(3-hydroxybenzyl)-2-hydroxybenzamide [Compound 13] | inactive |
| 5-Chloro-N-(4-hydroxybenzyl)-2-hydroxybenzamide [Compound 14] | inactive |
| O=C(Nc1ccccc1)c1cc(Cl)ccc1O [Compound 2, 5-Chlorosalicylanilide] | antiviral efficacy that were superior to their cytotoxicity |
| O=C(Nc1ccc([N+](=O)[O-])cc1)c1cc(Cl)ccc1O [Compound 3, 5-Chloro-N-(4-nitrophenyl)-2-hydroxybenzamide] | antiviral efficacy that were superior to their cytotoxicity |
| O=C(Nc1cccc([N+](=O)[O-])c1)c1cc(Cl)ccc1O [Compound 4, 5-Chloro-N-(3-nitrophenyl)-2-hydroxybenzamide] | antiviral efficacy that were superior to their cytotoxicity |
| O=C(Nc1cccc(Cl)c1)c1cc(Cl)ccc1O [Compound 6, 5-Chloro-N-(3-chlorophenyl)-2-hydroxybenzamide] | antiviral efficacy that were superior to their cytotoxicity |
| O=C(Nc1ccc(F)c(Cl)c1)c1cc(Cl)ccc1O [Compound 7, 5-Chloro-N-(3-chloro-4-fluorophenyl)-2-hydroxybenzamide] | diminished |
| O=C(Nc1ccc(F)cc1)c1cc(Cl)ccc1O [Compound 8, 5-Chloro-N-(4-fluorophenyl)-2-hydroxybenzamide] | inactive |
| O=C(Nc1cccc(F)c1)c1cc(Cl)ccc1O [Compound 9, 5-Chloro-N-(3-fluorophenyl)-2-hydroxybenzamide] | inactive |
| O=C(Nc1ccc(C(F)(F)F)cc1)c1cc(Cl)ccc1O [Compound 10, 5-Chloro-N-(4-trifluoromethylphenyl)-2-hydroxybenzamide] | antiviral efficacy that were superior to their cytotoxicity |
| O=C(Nc1cccc(C(F)(F)F)c1)c1cc(Cl)ccc1O [Compound 11, 5-Chloro-N-(3-trifluoromethylphenyl)-2-hydroxybenzamide] | antiviral efficacy that were superior to their cytotoxicity |
| CC(C)(C)c1cccc(NC(=O)c2cc(Cl)ccc2O)c1 [Compound 12, 5-Chloro-N-(3-tert-butylphenyl)-2-hydroxybenzamide] | antiviral efficacy that were superior to their cytotoxicity |
| O=C(Nc1ccc(N2CCCCC2)cc1)c1cc(Cl)ccc1O [Compound 15, 5-Chloro-N-(4-(piperidin-1-yl)phenyl)-2-hydroxybenzamide] | inactive |
| Cc1ccc(CNC(=O)c2cc(Cl)ccc2O)cc1 [Compound 16, 5-Chloro-N-(4-methylbenzyl)-2-hydroxybenzamide] | did not show viral inhibition |
| Cc1cccc(CNC(=O)c2cc(Cl)ccc2O)c1 [Compound 17, 5-Chloro-N-(3-methylbenzyl)-2-hydroxybenzamide] | did not show viral inhibition |
| O=C(Nc1ccc([N+](=O)[O-])cc1Cl)c1ccccc1O [Compound 18, N-(2-chloro-4-nitrophenyl)-2-hydroxybenzamide] | antiviral efficacy that were superior to their cytotoxicity |
| Cc1ccc(O)c(C(=O)Nc2ccc([N+](=O)[O-])cc2Cl)c1 [Compound 20, 5-Methyl-N-(2-chloro-4-nitrophenyl)-2-hydroxybenzamide] | diminished |
| Cc1ccc(C(=O)Nc2ccc([N+](=O)[O-])cc2Cl)c(O)c1 [Compound 21, 4-Methyl-N-(2-chloro-4-nitrophenyl)-2-hydroxybenzamide] | diminished |
| O=C(Nc1ccc([N+](=O)[O-])cc1Cl)c1cc(F)ccc1O [Compound 22, 5-Fluoro-N-(2-chloro-4-nitrophenyl)-2-hydroxybenzamide] | diminished |
| O=C(Nc1ccc(O[C@@H]2O[C@H](CO)[C@@H](O)[C@H](O)[C@H]2O)cc1)c1cc(Cl)ccc1O [Compound 27, 5-Chloro-N-(4-phenyl-β-D-glucopyranoside)-2-hydroxybenzamide] | inactive |

Tested on: not listed separately
Assay: in vitro
Settings: PAMPA

| Compound | Papp |
| --- | --- |
| O=C(Nc1ccc([N+](=O)[O-])cc1)c1cc(Cl)ccc1O [Compound 3, 5-Chloro-N-(4-nitrophenyl)-2-hydroxybenzamide] | 12.4 ×10⁻⁶ cm/s |
| O=C(Nc1ccc(F)cc1)c1cc(Cl)ccc1O [Compound 8, 5-Chloro-N-(4-fluorophenyl)-2-hydroxybenzamide] | 18.2 ×10⁻⁶ cm/s |

Tested on: TMEM16F
Assay: not given
Assay type: cell-based
Settings: 100 nM, 1 h treatment, Vero E6 cells, annexin XII

| Compound | phosphatidylserine externalization triggered by ionomycin |
| --- | --- |
| O=C(Nc1ccc([N+](=O)[O-])cc1Cl)c1cc(Cl)ccc1O [Compound 1, 5-Chloro-N-(2-chloro-4-nitrophenyl)-2-hydroxybenzamide] | significantly reduced the signal of phosphatidylserine on cell surface |

Same assay, conditions: 500 nM, 1 h treatment, Vero E6 cells, annexin XII

| Compound | phosphatidylserine externalization triggered by ionomycin |
| --- | --- |
| Cc1c(O)cccc1C(=O)N[C@@H](CSc1ccccc1)[C@H](O)CN1C[C@H]2CCCC[C@H]2C[C@H]1C(=O)NC(C)(C)C [Nelfinavir] | no inhibition |

Tested on: COVID-19
Assay: not given
Settings: non-hospitalized adult patients with mild-to-moderate COVID-19, phase 3 study; cited from earlier work

| Compound | reduction of the risk of hospitalization or death |
| --- | --- |
| CC(C)C(=O)OC[C@H]1O[C@@H](n2ccc(NO)nc2=O)[C@H](O)[C@@H]1O [Molnupiravir] | 30% |
